Measurements from PMC4084896 (PLoS ONE, 2014).
Read-outs that look alike come from different tables or passages of the source.

Experiments:
[1] = MTT cytotoxicity test in AZ-AHR cells; assay type: cell-based, human; conditions: human; 24 h incubation, six passages; read-out: AZ-AHR viability - MTT IC50
Text: (§1) A stably transfected gene reporter cell line AZ-AHR, derived from human hepatoma HepG2 cells transfected with a construct containing several AhR binding sites upstream of a luciferase reporter gene, was used for assessment of AhR transcriptional activity. A stably transfected gene reporter cell line AZ-GR, derived from human cervix carcinoma HeLa cells transfected with a construct containing several GR response elements upstream of a luciferase reporter gene, was used for assessment of GR transcriptional activity. Cells were incubated for 24 h with tested compounds and/or vehicle (DMSO; 0.1% v/v), in the presence or absence of TCDD (5 nM; AZ-AHR cells) or DEX (100 nM; AZ-GR cells). After the treatments, cells were lysed and luciferase activity was measured. In parallel, cell viability was determined by conventional MTT test.
(§2) Prior to the agonist or antagonist experiments, the cytotoxicity of tested compounds was assessed using the conventional MTT assay. […] The vehicle was DMSO (0.1% v/v). After the treatment, a MTT test was performed.

[2] = tested on: CYP1A1 catalytic activity (7-ethoxyresorufin-O-deethylase)
[3] = target: T1, glucocorticoid receptor (GR) (Homo sapiens, UniProt P04150); test: GR gene reporter assay in AZ-GR cells, agonist mode; assay type: cell-based; conditions: up to / at 100 µM, 24 h
T1 sequence (P04150 1-777): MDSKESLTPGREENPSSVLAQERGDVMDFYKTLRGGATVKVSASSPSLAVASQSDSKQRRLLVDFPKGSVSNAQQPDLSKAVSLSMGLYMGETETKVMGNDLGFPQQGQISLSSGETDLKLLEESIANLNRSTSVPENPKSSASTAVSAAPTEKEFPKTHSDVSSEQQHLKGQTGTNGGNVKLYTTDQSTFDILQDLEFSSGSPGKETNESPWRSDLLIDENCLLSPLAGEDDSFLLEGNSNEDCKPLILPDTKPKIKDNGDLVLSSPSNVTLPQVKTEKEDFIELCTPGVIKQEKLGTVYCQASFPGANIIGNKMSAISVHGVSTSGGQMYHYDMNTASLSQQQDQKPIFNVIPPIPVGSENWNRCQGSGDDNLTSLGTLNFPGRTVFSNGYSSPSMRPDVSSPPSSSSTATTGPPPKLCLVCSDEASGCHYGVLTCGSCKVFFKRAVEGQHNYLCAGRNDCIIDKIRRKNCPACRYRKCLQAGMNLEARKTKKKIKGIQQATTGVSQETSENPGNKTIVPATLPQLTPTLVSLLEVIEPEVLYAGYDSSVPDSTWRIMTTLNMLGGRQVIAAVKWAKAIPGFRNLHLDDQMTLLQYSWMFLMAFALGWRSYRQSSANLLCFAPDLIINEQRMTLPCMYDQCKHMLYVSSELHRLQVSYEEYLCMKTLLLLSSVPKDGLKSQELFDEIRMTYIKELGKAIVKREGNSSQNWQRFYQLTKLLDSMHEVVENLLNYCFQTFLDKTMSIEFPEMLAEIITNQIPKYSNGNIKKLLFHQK
Text: as §1
(§3) There is multiple evidence for the role of glucocorticoid receptor (GR) in regulation of AhR activity. […] Gene reporter assays were performed in agonist and antagonist mode (similarly as described in section 3.1.).

AZ-GR cells = test: MTT cytotoxicity test in AZ-GR cells; assay type: cell-based, human; conditions: 24 h incubation, read-out: AZ-GR viability - MTT IC50
Text: as §1, §3

[4] = target: T2, aryl hydrocarbon receptor AhR (Homo sapiens, UniProt P35869); test: AhR gene reporter assay in AZ-AHR cells, agonist mode; assay type: cell-based; conditions: for EC50: 24 h, agonist mode
T2 construct: endogenous in cells; host or cells: AZ-AHR (stably transfected reporter line derived from HepG2)
T2 sequence (P35869 11-848): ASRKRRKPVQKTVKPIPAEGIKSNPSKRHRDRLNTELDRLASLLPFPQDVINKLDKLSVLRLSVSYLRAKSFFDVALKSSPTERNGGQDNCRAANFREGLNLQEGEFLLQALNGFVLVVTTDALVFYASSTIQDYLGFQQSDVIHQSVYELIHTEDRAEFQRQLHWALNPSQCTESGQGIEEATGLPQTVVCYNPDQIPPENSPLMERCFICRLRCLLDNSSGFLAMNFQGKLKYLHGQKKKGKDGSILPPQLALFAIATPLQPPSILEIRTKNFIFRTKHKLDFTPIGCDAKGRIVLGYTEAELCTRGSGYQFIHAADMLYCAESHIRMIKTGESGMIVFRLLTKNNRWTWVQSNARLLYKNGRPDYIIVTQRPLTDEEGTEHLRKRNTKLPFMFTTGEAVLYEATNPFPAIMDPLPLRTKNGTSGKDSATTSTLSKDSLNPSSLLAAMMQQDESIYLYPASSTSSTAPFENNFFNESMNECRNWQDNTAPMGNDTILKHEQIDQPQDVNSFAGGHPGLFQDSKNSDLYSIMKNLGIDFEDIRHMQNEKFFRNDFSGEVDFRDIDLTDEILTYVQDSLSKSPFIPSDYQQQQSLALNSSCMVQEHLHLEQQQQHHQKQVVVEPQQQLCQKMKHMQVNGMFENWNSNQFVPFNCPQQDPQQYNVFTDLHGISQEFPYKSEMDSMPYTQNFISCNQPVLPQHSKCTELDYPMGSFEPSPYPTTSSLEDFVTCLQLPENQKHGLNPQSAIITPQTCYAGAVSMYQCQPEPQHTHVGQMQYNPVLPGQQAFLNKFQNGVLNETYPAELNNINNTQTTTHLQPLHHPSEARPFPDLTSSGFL
Text: as §1
Gene reporter assays were performed in two different experimental layouts. In agonist mode, cells were treated with increasing concentrations of tested compounds, and the half-maximal effective concentrations (EC50) were calculated.

[5] = target: T1, glucocorticoid receptor (GR); test: GR gene reporter assay in AZ-GR cells, antagonist mode (DEX 100 nM); assay type: cell-based; conditions: 24 h; for IC50: in the presence of DEX 100 nM
Text: as §1, §3

AZ-AHR cells = test: MTT cytotoxicity test in AZ-AHR cells; assay type: cell-based, human; conditions: 24 h incubation, six passages; read-out: AZ-AHR viability - MTT IC50
Text: as §1, §2

Structure (SMILES)	IC50 at 24 h [1]	EROD activity (in words) [2]	increase of luciferase activity, agonist mode [3]	IC50 (AZ-GR cells; Homo sapiens)	AZ-AHR gene reporter - agonist efficacy [4]	EC50 [4]	inhibition of DEX-induced luciferase activity (in words) ([5]; DEX 100 nM)	IC50 [5]	IC50 (AZ-AHR cells)	IC50 (AZ-GR cells)	AZ-AHR gene reporter - agonist efficacy ([4]; average value printed in Figure 1B, relative to TCDD)
CC(=O)N1CCN(c2ccc(OCC3COC(Cn4ccnc4)(c4ccc(Cl)cc4Cl)O3)cc2)CC1 (racemic) [rac-KET, ketoconazole]	67.2 ± 24.8 µM	increased the EROD activity in a concentration-dependent manner	approximately 5 fold	> 100 µM	15,4 ± 9,4%	5.2 µM	only weak inhibition	> 100 µM			
CC(=O)N1CCN(c2ccc(OC[C@H]3CO[C@](Cn4ccnc4)(c4ccc(Cl)cc4Cl)O3)cc2)CC1 [(+)-KET, (2R,4S)-(+)-KET]			did not induce luciferase activity			3.2 µM		29.6 ± 0.9 µM	77.3 ± 23.9 µM	82.6 ± 23.7 µM	23,5 ± 12,2%
